# Article PMC5216056 (Nature Communications, 2017)
# Where two headings read alike, the source gives them in different places.
# Experiments:
# [1] = molecular target: T1, hCB1R (Homo sapiens, UniProt P21554); test: cell-based
# T1 construct: host or cells: CHO
# [2] = molecular target: T1, hCB1R; test: cell-based; format: cell-based
# [3] = molecular target: T1, hCB1R; test: biochemical; format: binding
# [4] = molecular target: T1, hCB1R; test: biochemical; format: biochemical
# [5] = molecular target: T2, mCB1R (Mus musculus, UniProt P47746); test: biochemical; format: binding
# T2 construct: from tissue; host or cells: brain of male C57BL/6J mice
# [6] = molecular target: T3, Human recombinant TRPV1 (Homo sapiens, UniProt Q8NER1); test: cell-based; format: cell-based; conditions: for IC50: read-out: TRPV1 IC50 for antagonism or desensitization
# T3 construct: expressed in transfected cells; host or cells: HEK293 (TRPV1-HEK-293, gift from John Davis, GlaxoSmithKline)
# [7] = system: AEA cellular uptake in U937 cells; test: cells; format: cell-based, human; conditions: for IC50: read-out: AEA reuptake IC50 (95% CI) U937 cells
# [8] = molecular target: T4, Rat recombinant TRPV2 (Rattus norvegicus, UniProt Q9WUD2); test: cell-based; format: cell-based; conditions: for IC50: vs LPC 3μM, read-out: TRPV2 IC50 for antagonism or desensitization
# T4 construct: expressed in transfected cells; host or cells: HEK293 (plasmid a gift from HB Bradshaw, Indiana University)
# T4 sequence (Q9WUD2 1-761): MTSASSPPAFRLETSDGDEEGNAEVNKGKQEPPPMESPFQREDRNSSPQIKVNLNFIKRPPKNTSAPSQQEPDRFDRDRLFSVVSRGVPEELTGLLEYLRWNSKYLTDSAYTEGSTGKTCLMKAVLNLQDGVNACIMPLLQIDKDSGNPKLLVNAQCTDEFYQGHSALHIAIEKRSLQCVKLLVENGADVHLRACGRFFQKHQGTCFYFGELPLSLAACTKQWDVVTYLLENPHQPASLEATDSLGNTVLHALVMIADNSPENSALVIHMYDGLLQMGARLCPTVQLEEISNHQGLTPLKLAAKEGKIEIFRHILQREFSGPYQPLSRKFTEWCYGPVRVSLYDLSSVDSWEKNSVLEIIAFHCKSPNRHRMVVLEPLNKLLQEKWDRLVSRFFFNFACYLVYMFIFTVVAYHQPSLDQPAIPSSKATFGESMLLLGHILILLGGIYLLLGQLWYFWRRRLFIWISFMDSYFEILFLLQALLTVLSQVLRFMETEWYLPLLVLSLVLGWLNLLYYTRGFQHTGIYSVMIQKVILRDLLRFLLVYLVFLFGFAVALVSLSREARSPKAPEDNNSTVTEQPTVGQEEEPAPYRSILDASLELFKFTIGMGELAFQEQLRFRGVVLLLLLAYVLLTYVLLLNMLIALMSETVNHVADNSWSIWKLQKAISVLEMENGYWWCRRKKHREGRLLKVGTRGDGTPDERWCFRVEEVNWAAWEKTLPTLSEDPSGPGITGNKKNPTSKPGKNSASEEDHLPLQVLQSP
# [9] = molecular target: T5, alpha 1A (h) (Homo sapiens, UniProt P35348); test: CEREP panel; format: binding; conditions: 10 µM
# T5 construct: CEREP
# T5 sequence (P35348 1-466): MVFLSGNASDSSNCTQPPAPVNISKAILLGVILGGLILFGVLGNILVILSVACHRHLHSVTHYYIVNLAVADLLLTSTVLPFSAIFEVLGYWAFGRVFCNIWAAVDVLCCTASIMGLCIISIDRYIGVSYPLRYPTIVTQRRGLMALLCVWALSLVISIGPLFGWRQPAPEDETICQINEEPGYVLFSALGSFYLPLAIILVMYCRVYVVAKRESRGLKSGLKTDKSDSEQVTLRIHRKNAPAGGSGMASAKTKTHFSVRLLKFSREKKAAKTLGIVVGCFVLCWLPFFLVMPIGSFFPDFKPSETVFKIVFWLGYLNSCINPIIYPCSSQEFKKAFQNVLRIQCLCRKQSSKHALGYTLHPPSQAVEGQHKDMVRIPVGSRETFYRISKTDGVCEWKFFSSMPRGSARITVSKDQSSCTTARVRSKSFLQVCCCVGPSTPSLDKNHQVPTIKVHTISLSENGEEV
# [10] = system: BZD (central); format: binding; conditions: 10 µM
# [11] = molecular target: T6, PPARα (h) (Homo sapiens, UniProt Q07869); test: CEREP panel; format: binding; conditions: 10 µM
# T6 construct: CEREP (contract assay)
# T6 sequence (Q07869 1-468): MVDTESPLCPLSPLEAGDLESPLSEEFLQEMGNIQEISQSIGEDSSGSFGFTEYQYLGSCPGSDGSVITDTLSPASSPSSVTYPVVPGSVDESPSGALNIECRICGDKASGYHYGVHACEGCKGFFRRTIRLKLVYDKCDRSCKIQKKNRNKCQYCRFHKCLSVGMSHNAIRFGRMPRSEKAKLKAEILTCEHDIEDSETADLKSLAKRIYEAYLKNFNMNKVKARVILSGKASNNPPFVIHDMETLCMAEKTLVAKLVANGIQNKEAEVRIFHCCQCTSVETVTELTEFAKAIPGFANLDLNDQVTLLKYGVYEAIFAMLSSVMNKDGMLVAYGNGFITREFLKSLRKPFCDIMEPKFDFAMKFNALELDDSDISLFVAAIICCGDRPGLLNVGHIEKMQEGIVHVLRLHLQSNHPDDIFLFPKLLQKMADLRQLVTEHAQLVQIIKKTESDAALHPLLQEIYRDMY
# [12] = i.v., mice
# T3 sequence (Q8NER1 whole entry): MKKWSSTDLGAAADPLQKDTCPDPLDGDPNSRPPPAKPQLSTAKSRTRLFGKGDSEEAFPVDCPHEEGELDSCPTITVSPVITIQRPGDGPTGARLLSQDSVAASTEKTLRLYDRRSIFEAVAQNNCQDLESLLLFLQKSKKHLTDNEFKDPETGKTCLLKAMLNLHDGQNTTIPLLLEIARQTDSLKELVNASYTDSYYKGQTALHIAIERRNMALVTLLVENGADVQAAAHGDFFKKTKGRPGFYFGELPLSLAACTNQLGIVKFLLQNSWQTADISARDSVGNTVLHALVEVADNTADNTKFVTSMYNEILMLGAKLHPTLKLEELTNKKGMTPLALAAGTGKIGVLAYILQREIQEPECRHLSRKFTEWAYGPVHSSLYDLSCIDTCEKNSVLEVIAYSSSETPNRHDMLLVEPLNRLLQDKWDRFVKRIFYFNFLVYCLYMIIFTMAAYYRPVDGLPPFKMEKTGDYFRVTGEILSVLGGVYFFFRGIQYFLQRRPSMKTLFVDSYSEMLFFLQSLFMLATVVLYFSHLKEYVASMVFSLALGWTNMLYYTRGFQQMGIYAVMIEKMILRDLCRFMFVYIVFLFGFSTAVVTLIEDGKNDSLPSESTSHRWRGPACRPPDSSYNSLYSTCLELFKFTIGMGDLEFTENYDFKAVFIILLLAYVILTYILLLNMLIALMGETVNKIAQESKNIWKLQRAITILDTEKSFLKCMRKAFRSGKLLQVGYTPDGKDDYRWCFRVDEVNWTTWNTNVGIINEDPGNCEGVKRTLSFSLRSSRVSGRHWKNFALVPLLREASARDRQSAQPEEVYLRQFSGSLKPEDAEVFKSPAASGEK
# T1 sequence (P21554 whole entry): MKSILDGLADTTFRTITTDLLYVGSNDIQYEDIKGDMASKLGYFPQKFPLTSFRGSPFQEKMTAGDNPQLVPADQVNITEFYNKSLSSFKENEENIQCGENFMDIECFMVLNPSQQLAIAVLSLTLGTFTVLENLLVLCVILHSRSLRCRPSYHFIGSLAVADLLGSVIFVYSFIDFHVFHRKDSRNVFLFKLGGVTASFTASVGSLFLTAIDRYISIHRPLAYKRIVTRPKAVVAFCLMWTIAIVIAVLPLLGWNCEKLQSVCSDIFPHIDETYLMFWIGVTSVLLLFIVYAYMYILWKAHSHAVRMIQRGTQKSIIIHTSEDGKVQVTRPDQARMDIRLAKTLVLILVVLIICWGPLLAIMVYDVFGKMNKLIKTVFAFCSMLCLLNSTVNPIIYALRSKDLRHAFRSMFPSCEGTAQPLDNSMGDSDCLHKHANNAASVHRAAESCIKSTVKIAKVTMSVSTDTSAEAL
# T2 sequence (P47746 whole entry): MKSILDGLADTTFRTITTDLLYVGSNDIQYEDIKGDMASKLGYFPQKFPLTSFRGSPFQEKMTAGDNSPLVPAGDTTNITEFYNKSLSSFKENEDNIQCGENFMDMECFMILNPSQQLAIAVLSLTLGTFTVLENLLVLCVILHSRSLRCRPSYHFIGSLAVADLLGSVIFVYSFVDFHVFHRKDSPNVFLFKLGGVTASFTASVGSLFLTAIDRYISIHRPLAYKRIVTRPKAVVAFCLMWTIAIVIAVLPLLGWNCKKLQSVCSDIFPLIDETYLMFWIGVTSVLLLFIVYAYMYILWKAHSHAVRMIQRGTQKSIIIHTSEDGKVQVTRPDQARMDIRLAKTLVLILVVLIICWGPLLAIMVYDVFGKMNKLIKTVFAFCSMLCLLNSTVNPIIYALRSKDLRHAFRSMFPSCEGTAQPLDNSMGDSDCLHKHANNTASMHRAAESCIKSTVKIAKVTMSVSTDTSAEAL
structure (smiles),measurement,setting,value
CN1CCCCC1Cn1cc(C(=O)c2cc([N+](=O)[O-])ccc2I)c2ccccc21 (racemic) [(rac)-AM1241],pEC50 ± SEM cAMP hCB1R,[1],< 5
same,Emax ± SEM GIRK hCB1R,[2],36 ± 4
same,pEC50 ± SEM GIRK hCB1R,[2],< 5
same,pKi ± SEM hCB1R,[3],6.89 ± 0.31
same,Emax ± SEM GTPγS hCB1R,[4],42 ± 6
same,pKi ± SEM mCB1R,[5],5.91 ± 0.16
"CCCCC/C=C\C/C=C\C/C=C\C/C=C\CCCC(=O)OC(CO)CO [2-AG, 2-arachidonoyl glycerol]",Emax,[1]; read-out: Emax ± SEM cAMP hCB1R,< 70%
same,Emax,"[2]; AtT20, read-out: Emax ± SEM GIRK hCB1R",100 ± 11%
same,Emax,[4]; read-out: Emax ± SEM GTPγS hCB1R,71 ± 20%
same,Ki,"[5]; mouse brain membranes, read-out: pKi ± SEM mCB1R (converted)",0.102 µM
CN1CCCC[C@@H]1Cn1cc(C(=O)c2cc([N+](=O)[O-])ccc2I)c2ccccc21 [(R)-AM1241],Emax ± SEM cAMP hCB1R,[1],54 ± 7
same,pEC50 ± SEM cAMP hCB1R,[1],6.17 ± 0.12
same,TRPV1 Efficacy (% ionomycin 4μM),[6],10.7%
same,IC50,[6],> 50 µM
same,EC50,[6]; read-out: TRPV1 Potency EC50,> 50 µM
same,pEC50 ± SEM GIRK hCB1R,[2],5.00 ± 0.1
same,Emax ± SEM GIRK hCB1R,[2]; normalized to CP55940,51 ± 3%
same,pKi ± SEM hCB1R,"[3]; CHO membranes, Leiden, HU210 and SR144528 from Roche",6.86 ± 0.46
same,Emax ± SEM GTPγS hCB1R,[4],47 ± 8
same,pEC50 ± SEM GTPγS hCB1R,[4],6.78 ± 0.40
same,pKi ± SEM mCB1R,[5]; mouse brain membranes,6.36 ± 0.13
same,AEA reuptake Efficacy (% inhibition) U937 cells,[7]; from dose-response,77%
same,IC50,[7],4.81 µM
same,TRPV2 Efficacy (% ionomycin 4μM),[8],14.5%
same,EC50,[8]; read-out: TRPV2 Potency EC50,12 µM
same,IC50,[8],35.5 µM
Cc1c(C(=O)NN2CCCCC2)nn(-c2ccc(Cl)cc2Cl)c1-c1ccc(I)cc1 [AM251],% inhibition alpha 1A (h),[9],6%
same,TRPV2 Efficacy (% ionomycin 4μM),[8],< 10%
COc1ccc(C(=O)c2c(C)n(CCN3CCOCC3)c3cc(I)ccc23)cc1 [AM630],% inhibition BZD (central),[10],-12%
same,TRPV1 Efficacy (% ionomycin 4μM),[6],< 10%
same,IC50,[6],> 100 µM
same,% inhibition PPARα (h),[11],-17%
same,% inhibition alpha 1A (h),[9],47%
same,pKi ± SEM mCB1R,[5]; mouse brain membranes,5.6 ± 0.298
same,AUCinf,[12],197 ng·h/mL
same,AUCinf/dose,[12],197 kg·ng·h/mL/mg
same,AUClast,[12],177 ng·h/mL
same,CL,[12],85 mL/min/kg
same,T1/2,[12],2.9 h
same,C0,"[12]; 1.0-2.0 mg/kg, extrapolated",69.8 ng/mL
same,"AEA reuptake % inhibition, effect at 10 µM, U937 cells",[7]; 10 µM (values marked *),23%
same,IC50,[7],> 10 µM
same,TRPV2 Efficacy (% ionomycin 4μM),[8],< 10%
same,IC50,[8],35.6 µM
